Several values for one entry are separate records, joined by “and”; a condition that tells them apart may be missing. Identical values can stand only once.

Type in all cases: binding
Experiment [1] has as its target T1, MERS-CoV macro domain (Middle East respiratory syndrome-related coronavirus, UniProt K9N638).
The target of experiment [2] is T1, MERS-CoV macro domain. The source holds these as a separate data set.
For experiment [3], the target named is T1, MERS-CoV macro domain. The source holds these as a separate data set.
Experiment [4] has as its target T1, MERS-CoV macro domain. This is another data set of the same source.

T1 sequence (K9N638 1110-1276 limits assumed): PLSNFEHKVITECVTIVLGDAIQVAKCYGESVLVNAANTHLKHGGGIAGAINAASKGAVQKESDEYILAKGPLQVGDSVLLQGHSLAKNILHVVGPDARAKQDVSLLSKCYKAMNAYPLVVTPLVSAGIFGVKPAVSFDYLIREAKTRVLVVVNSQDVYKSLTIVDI

With `Nc1ncnc2c1ncn2[C@@H]1O[C@H](COP(=O)(O)OP(=O)(O)O)[C@@H](O)[C@H]1O` [ADP, adenosine diphosphate], the “Melting temperature (Tm) of the MERS-CoV macro domain in complex, CD” value in experiment [1] was 43.7 °C. Besides, in experiment [2], the “NMR CSP, residue 11” value is 0.01279 and 0.006701; the “NMR CSP, residue 29” value was 0.01328 and 0.01691; the “NMR CSP, residue 36” value amounted to 0.05057; the “NMR CSP, residue 37” value is recorded as 0.07911. For the same molecule, in experiment [2], the “NMR CSP, residue 46” value came out at 0.3834; the “NMR CSP, residue 47” value was 0.05654 and 0.03639; the “NMR CSP, residue 48” value is 0.08159 and 0.1212; the “NMR CSP, residue 67” value was 0.0178 and 0.009143. In experiment [2], the “NMR CSP, residue 75” value is 0.05887 and 0.06181; the “NMR CSP, residue 94” value was found to be 0.1393; the “NMR CSP, residue 101” value was 0.03691 and 0.02294; the “NMR CSP, residue 125” value was 0.08579. In experiment [2], the “NMR CSP, residue 130” value is 0.08457 and 0.1167; the “NMR CSP, residue 132” value is 0.01774 and 0.01343; the “NMR CSP, residue 149” value was determined as 0.01454; the “NMR CSP, residue 154” value is reported as 0.08237. Moreover, the “NMR CSP, residue 156” value in experiment [2] turned out to be 0.2276. The “Melting temperature (Tm) of the MERS-CoV macro domain in complex, DSF” value in experiment [3] amounted to 44.5 °C. Also, in experiment [4], the “n (stoichiometry of binding)” value was 1.08 ± 0.06, the ΔH was -3.85 ± 1.8 kcal/mol and the “−TΔS” value was -1.86 ± 1.51 kcal/mol.

Source of the values: article PMC7840908 (Communications Biology, 2021).
